Publication PMC12102759 (Protein Science : A Publication of the Protein Society, 2025)

The substances below were run on G3BP1 NFT2. Settings: library DMS-BM; bait G3BP1 NFT2; prey CAPRIN1; AQMQGPYNFIQDSM(averaged): mean of the two overlapping peptides over the shared positions.
Assay type: binding, human

In order of falling “DMS position-specific score (PSSM value) per amino-acid substitution, averaged” value:
1. AQMQGPYNFIQDSM(averaged) F9F  0.9484
2. AQMQGPYNFIQDSM(averaged) I10I  0.4804
3. AQMQGPYNFIQDSM(averaged) D12D  0.268
4. AQMQGPYNFIQDSM(averaged) G5F (AQMQFPYNFIQDSM)  0.2345
5. AQMQGPYNFIQDSM(averaged) G5G  0.2298
6. AQMQGPYNFIQDSM(averaged) D12P (AQMQGPYNFIQPSM)  0.216
7. AQMQGPYNFIQDSM(averaged) G5L (AQMQLPYNFIQDSM)  0.1936
8. AQMQGPYNFIQDSM(averaged) D12S (AQMQGPYNFIQSSM)  0.1749
9. AQMQGPYNFIQDSM(averaged) I10L (AQMQGPYNFLQDSM)  0.1472
10. AQMQGPYNFIQDSM(averaged) A1Y (YQMQGPYNFIQDSM)  0.1391
11. AQMQGPYNFIQDSM(averaged) G5S (AQMQSPYNFIQDSM)  0.1168
12. AQMQGPYNFIQDSM(averaged) A1Q (QQMQGPYNFIQDSM)  0.1157
13. AQMQGPYNFIQDSM(averaged) D12H (AQMQGPYNFIQHSM)  0.1155
14. AQMQGPYNFIQDSM(averaged) G5M (AQMQMPYNFIQDSM)  0.1116
15. AQMQGPYNFIQDSM(averaged) I10F (AQMQGPYNFFQDSM)  0.1045
16. AQMQGPYNFIQDSM(averaged) D12A (AQMQGPYNFIQASM)  0.09226
17. AQMQGPYNFIQDSM(averaged) A1P (PQMQGPYNFIQDSM)  0.07411
18. AQMQGPYNFIQDSM(averaged) A1L (LQMQGPYNFIQDSM)  0.06855
19. AQMQGPYNFIQDSM(averaged) A1V (VQMQGPYNFIQDSM)  0.05956
20. AQMQGPYNFIQDSM(averaged) A1W (WQMQGPYNFIQDSM)  0.05589
21. AQMQGPYNFIQDSM(averaged) D12E (AQMQGPYNFIQESM)  0.04092
22. AQMQGPYNFIQDSM(averaged) I10M (AQMQGPYNFMQDSM)  0.03721
23. AQMQGPYNFIQDSM(averaged) F9D (AQMQGPYNDIQDSM)  0.037
24. AQMQGPYNFIQDSM(averaged) G5W (AQMQWPYNFIQDSM)  0.033
25. AQMQGPYNFIQDSM(averaged) A1M (MQMQGPYNFIQDSM)  0.03265
26. AQMQGPYNFIQDSM(averaged) D12N (AQMQGPYNFIQNSM)  0.03064
27. AQMQGPYNFIQDSM(averaged) G5P (AQMQPPYNFIQDSM)  0.02397
28. AQMQGPYNFIQDSM(averaged) A1N (NQMQGPYNFIQDSM)  0.01838
29. AQMQGPYNFIQDSM(averaged) G5I (AQMQIPYNFIQDSM)  0.01217
30. AQMQGPYNFIQDSM(averaged) D12M (AQMQGPYNFIQMSM)  0.01204
31. AQMQGPYNFIQDSM(averaged) F9Q (AQMQGPYNQIQDSM)  0.01043
32. AQMQGPYNFIQDSM(averaged) D12Q (AQMQGPYNFIQQSM)  0.008788
33. AQMQGPYNFIQDSM(averaged) G5V (AQMQVPYNFIQDSM)  0.008337
34. AQMQGPYNFIQDSM(averaged) D12L (AQMQGPYNFIQLSM)  0.008174
35. AQMQGPYNFIQDSM(averaged) G5T (AQMQTPYNFIQDSM)  0.007904
36. AQMQGPYNFIQDSM(averaged) G5Y (AQMQYPYNFIQDSM)  0.006993
37. AQMQGPYNFIQDSM(averaged) G5H (AQMQHPYNFIQDSM)  0.006873
38. AQMQGPYNFIQDSM(averaged) D12G (AQMQGPYNFIQGSM)  0.006593
39. AQMQGPYNFIQDSM(averaged) D12T (AQMQGPYNFIQTSM)  0.005851
40. AQMQGPYNFIQDSM(averaged) A1T (TQMQGPYNFIQDSM)  0.005821
41. AQMQGPYNFIQDSM(averaged) D12V (AQMQGPYNFIQVSM)  0.005056
42. AQMQGPYNFIQDSM(averaged) D12F (AQMQGPYNFIQFSM)  0.004771
43. AQMQGPYNFIQDSM(averaged) G5Q (AQMQQPYNFIQDSM)  0.004656
44. AQMQGPYNFIQDSM(averaged) A1R (RQMQGPYNFIQDSM)  0.004419
45. AQMQGPYNFIQDSM(averaged) I10G (AQMQGPYNFGQDSM)  0.004165
46. AQMQGPYNFIQDSM(averaged) D12Y (AQMQGPYNFIQYSM)  0.00358
47. AQMQGPYNFIQDSM(averaged) D12R (AQMQGPYNFIQRSM)  0.003499
48. AQMQGPYNFIQDSM(averaged) I10H (AQMQGPYNFHQDSM)  0.003149
49. AQMQGPYNFIQDSM(averaged) G5A (AQMQAPYNFIQDSM)  0.003112
50. AQMQGPYNFIQDSM(averaged) D12K (AQMQGPYNFIQKSM)  0.003093
51. AQMQGPYNFIQDSM(averaged) F9Y (AQMQGPYNYIQDSM)  0.002988
52. AQMQGPYNFIQDSM(averaged) A1I (IQMQGPYNFIQDSM)  0.00266
53. AQMQGPYNFIQDSM(averaged) G5N (AQMQNPYNFIQDSM)  0.002472
54. AQMQGPYNFIQDSM(averaged) G5K (AQMQKPYNFIQDSM)  0.001793
55. AQMQGPYNFIQDSM(averaged) G5D (AQMQDPYNFIQDSM)  0.001672
56. AQMQGPYNFIQDSM(averaged) A1S (SQMQGPYNFIQDSM)  0.001176
57. AQMQGPYNFIQDSM(averaged) I10A (AQMQGPYNFAQDSM)  0.0009869
58. AQMQGPYNFIQDSM(averaged) G5E (AQMQEPYNFIQDSM)  0.000605
59. AQMQGPYNFIQDSM(averaged) F9L (AQMQGPYNLIQDSM)  0.0005113
60. AQMQGPYNFIQDSM(averaged) F9V (AQMQGPYNVIQDSM)  0.0005113
61. AQMQGPYNFIQDSM(averaged) A1K (KQMQGPYNFIQDSM)  0.0005059
62. AQMQGPYNFIQDSM(averaged) I10E (AQMQGPYNFEQDSM)  0.0004486
63. AQMQGPYNFIQDSM(averaged) I10K (AQMQGPYNFKQDSM)  0.0003536
64. AQMQGPYNFIQDSM(averaged) D12I (AQMQGPYNFIQISM)  0.0003022
65. AQMQGPYNFIQDSM(averaged) F9G (AQMQGPYNGIQDSM)  0.0001993
66. AQMQGPYNFIQDSM(averaged) G5R (AQMQRPYNFIQDSM)  0.0001509
67. AQMQGPYNFIQDSM(averaged) D12W (AQMQGPYNFIQWSM)  0
68. AQMQGPYNFIQDSM(averaged) F9A (AQMQGPYNAIQDSM)  0
69. AQMQGPYNFIQDSM(averaged) F9E (AQMQGPYNEIQDSM)  0
70. AQMQGPYNFIQDSM(averaged) F9H (AQMQGPYNHIQDSM)  0
71. AQMQGPYNFIQDSM(averaged) F9I (AQMQGPYNIIQDSM)  0
72. AQMQGPYNFIQDSM(averaged) F9K (AQMQGPYNKIQDSM)  0
73. AQMQGPYNFIQDSM(averaged) F9M (AQMQGPYNMIQDSM)  0
74. AQMQGPYNFIQDSM(averaged) F9N (AQMQGPYNNIQDSM)  0
75. AQMQGPYNFIQDSM(averaged) F9P (AQMQGPYNPIQDSM)  0
76. AQMQGPYNFIQDSM(averaged) F9R (AQMQGPYNRIQDSM)  0
77. AQMQGPYNFIQDSM(averaged) F9S (AQMQGPYNSIQDSM)  0
78. AQMQGPYNFIQDSM(averaged) F9T (AQMQGPYNTIQDSM)  0
79. AQMQGPYNFIQDSM(averaged) F9W (AQMQGPYNWIQDSM)  0
80. AQMQGPYNFIQDSM(averaged) I10D (AQMQGPYNFDQDSM)  0
